Measured values taken from patent US20160367705A1, “NANOPARTICLES COMPRISED OF SHELLS ASSOCIATED WITH CHARGED ENTITIES AND FORMED FROM MONOMERS AND METHODS OF MAKING AND USING NANOPARTICLES” (New York University, priority 2015, published 2016).

Test: Dynamic light scattering (DLS) particle size
Assay type: physicochemical
Conditions: in chloroform; reverse micelles at w=11.9
Description: Samples for dynamic light scattering are prepared by dissolving 1 mg of sample into 4 mL of solvent. The solution was then filtered through a 0.45 μm syringe filter into quartz cuvette with a path length of 2 cm. The measurements are obtained on a Malvern Zetasizer Nano.
Solubility properties dictate that gluc anions reside in the aqueous polar region of the reverse micelle and remain associated with CDA through the pairing of carboxylate with the cationic […] head group of CDA.

Acetamido Cetyl Dimethyl Ammonium Glucuronate [CDA-gluc]
average diameter (DLS): 14 nm
